Several values for one entry are separate records, joined by “and”; a condition that tells them apart may be missing. Equal values may be shown once. Read-outs that look alike come from different tables or passages of the source.
Experiments:
[1] = test system: rat SERT expressed by RBL-2H3 cells; assay: [3H]5-HT transport assay in RBL-2H3 cells; assay type: cell-based
[2] = test system: rat SERT expressed by RBL-2H3 cells; conditions: Zhu et al., 2004a,b; cited from earlier work
[3] = target: T1, native SERT in RN46A cells (Rattus norvegicus, UniProt P31652); assay: [3H]5-HT transport assay in RN46A cells; assay type: cell-based; conditions: RN46A
T1 construct: derived from rat E13 raphenucleus, that expresses native SERT; endogenous in cells; host or cells: RN46A cells

p38 MAPK = assay type: cell-based, rat
Description: Assays of p38 MAPK Activation. […] Medium was removed by aspiration, and cells were washed once with KRH buffer and then incubated in triplicate at 37° C. in KRH buffer with or without p38 MAPK activators for 5-10 min. Assay buffer was removed, and cells were immediately fixed with fresh 4% formaldehyde (Sigma) in PBS for 20 min at room temperature and washed four times with 1×PBS containing 0.1% Triton X-100 (Sigma) (5 min per wash) prior to 1 h of blocking with Odyssey blocking buffer (Li-Cor Biosciences, Lincoln, Nebr.). RBL-2H3 cells were subsequently probed with dual phosphorylated (Thr(P) and Tyr(P)) p38 MAPK polyclonal antibody (Cell Signaling; 1:400) in Odyssey blocking buffer with gentle mixing for 2 h at room temperature. Cells were then washed four times with 1×PBS containing 0.1% Tween 20 (Sigma) for 5 min. Bound antibody was detected with fluorescence-labeled secondary antibody-Alexa Fluor® 680 (avoiding exposure to light; 1:200 in Odyssey Blocking Buffer, Molecular Probes, Inc., Eugene, Oreg.) for 1 h. After four washes with 1×PBS, 0.1% Tween 20, the plate was scanned, and the captured image of the signal was processed and quantified with the Odyssey™ Infrared Imaging System (Li-Cor Biosciences). For UV radiation to activate p38 MAPK, plates seeded with cells were placed in a UV source (UV Stratalinker 1800, Stratagene, La Jolla, Calif.) that was preset to deliver 4×10^4 μJ/cm^2 at room temperature.

SERT in RBL-2H3 cells = target: T2, SERT in RBL-2H3 cells (Rattus norvegicus, UniProt P31652); assay: [125I]RTI-55 binding to intact RBL-2H3 cells; assay type: cell-based
T2 construct: As with rat SERT expressed by RBL-2H3 cells; host or cells: RBL-2H3 cells (intact cells, 4° C.)
From the text: Binding was terminated by two rapid washes with ice-cold PBS/CM.

hSERT Pro339Leu (P339L) = hSERT Pro339Leu (P339L) (Homo sapiens, UniProt P31645, P339L)
Description: (§1) Transfection and Transport Studies. HeLa cells, maintained at 37° C. in a 5% CO2 humidified incubator, were grown in complete medium (Dulbecco's Modified Eagle's Medium (DMEM, Invitrogen), 10% fetal bovine serum, 2 mM L-glutamine, 100 units/ml penicillin, and 100 μg/ml streptomycin).
(§2) Transport, Binding, Biotinylation and Phosphorylation Studies. […] To establish levels and biosynthetic progression of hSERT protein produced from mutant cDNAs, HeLa cells were plated in 6-well dishes at 500,000 cells per well and transfected 12 h later. Twenty four hours after transfection, whole cell detergent extracts were blotted for hSERT (mAb Technologies, Inc., 1:1000) using enhanced chemiluminescence (ECL, Amersham) detection.

hSERT Ile425Val (I425V) = target: T3, hSERT Ile425Val (I425V) (Homo sapiens, UniProt P31645, I425V); assay: [3H]5-HT transport (SERT uptake) assay in transfected HeLa cells; assay type: cell-based
T3 construct: The full-length cDNA encoding hSERT in the mammalian expression vector pcDNA3.1; expressed in transfected cells; host or cells: HeLa
Description: as §1, §2

hSERT = target: T4, hSERT (Homo sapiens, UniProt P31645); assay: as above; assay type: cell-based; conditions: saturation kinetics, hSERT
T4 construct: The full-length cDNA encoding hSERT in the mammalian expression vector pcDNA3.1; expressed in transfected cells; host or cells: HeLa
Description: as §1, §2

human NET = assay: monoamine uptake assay in transfected CHO cells; assay type: cell-based; conditions: SB203580 preincubation 15 min
Description: Cell Culture and Transfection. […] CHO cells (ATCC, Manassas, Va.) were maintained at 37° C. in Dulbecco's MEM containing 10% fetal bovine serum, 1% L-Glu, 100 IU/ml penicillin, and 100 μg/ml streptomycin. For comparison of the response of monoamine transporters to p38 MAPK activation, CHO cells were transfected with cDNAs for hSERT, hDAT, or hNET (100 ng/well for a 24-well plate). Transfections of CHO cells were performed using TransIT-LT1 Transfection Reagent (Mirus, Madison, Wis.) according to the manufacturer's protocol (0.3 μl/well). hSERT, hDAT, or hNET cDNAs were preincubated with the reagent at ambient temperature for 30 min before being added to plated CHO cells. Cells were cultured for 24 h after transfection. The transfection mixture was removed just prior to assay.
CHO cells were plated at 20,000 cells/well 16-24 h before transfection, and the uptake assay was performed 24 h following the transfection. […] Medium was removed by aspiration, and cells were washed once with Krebs-Ringer HEPES (KRH) buffer containing 130 mM NaCl, 1.3 mM KCl, 2.2 mM CaCl2, 1.2 mM MgSO4, 1.2 mM KH2PO4, 1.8 g/liter glucose, 10 mM HEPES, pH 7.4. […] Cells were solubilized with 0.5 ml of Microscint 20 (PerkinElmer Life Sciences), and tritium-labeled monoamine accumulation was quantitated using a TopCount plate scintillation counter (PerkinElmer Life Sciences).

NCCc1c[nH]c2ccc(O)cc12 = test system: T5, NCCc1c[nH]c2ccc(O)cc12; assay: cells, lysate or membranes; assay type: cell-based, human; conditions: other: saturation kinetics of 5-HT transport, hSERT; pH 7.4; 37.0 °C
T5 construct: The full-length cDNA encoding hSERT in the mammalian expression vector pcDNA3.1; expressed in transfected cells; host or cells: HeLa

T1 sequence (P31652 whole entry): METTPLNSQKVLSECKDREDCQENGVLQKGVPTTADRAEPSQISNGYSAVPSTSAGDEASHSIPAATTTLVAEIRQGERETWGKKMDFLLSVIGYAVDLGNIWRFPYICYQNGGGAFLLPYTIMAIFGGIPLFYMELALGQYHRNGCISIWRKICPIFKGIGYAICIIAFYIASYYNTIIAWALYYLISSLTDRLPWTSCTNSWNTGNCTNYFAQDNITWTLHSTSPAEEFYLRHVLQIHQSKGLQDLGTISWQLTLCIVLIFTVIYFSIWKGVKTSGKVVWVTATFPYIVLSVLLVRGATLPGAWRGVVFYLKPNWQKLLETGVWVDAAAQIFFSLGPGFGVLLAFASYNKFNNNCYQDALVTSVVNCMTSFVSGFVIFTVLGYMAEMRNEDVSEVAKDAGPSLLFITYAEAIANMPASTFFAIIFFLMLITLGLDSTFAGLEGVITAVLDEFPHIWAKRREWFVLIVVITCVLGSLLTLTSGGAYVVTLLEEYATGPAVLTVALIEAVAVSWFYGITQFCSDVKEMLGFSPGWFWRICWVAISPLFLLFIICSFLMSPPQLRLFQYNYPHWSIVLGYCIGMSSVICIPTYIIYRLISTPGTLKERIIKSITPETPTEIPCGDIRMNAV
T2 sequence (P31652 whole entry): as above

## COc1cc(/C=C/C(=O)CC(=O)/C=C/c2ccc(O)c(OC)c2)ccc1O [curcumin]
[1]
  blockade of anisomycin-stimulated 5-HT uptake / SERT activity: lacked antagonistic activity

## Oc1ccc(-c2nc(-c3ccc(F)cc3)c(-c3ccncc3)[nH]2)cc1 [SB202190]
[1]
  blockade of anisomycin-stimulated 5-HT uptake / SERT activity: blocked anisomycin stimulation of SERT

## COc1cccc(-c2cc(=O)c3ccccc3o2)c1N [PD98059]
[1]
  blockade of anisomycin-stimulated 5-HT uptake / SERT activity: failed to block

## COC[C@@H]([C@H](O)[C@H](O)C(=O)NCC[C@H](C)c1nc(/C=C/C[C@@H]2O[C@]3(C[C@@H](O)[C@@H]2C)O[C@H]([C@H](C[C@H](O)[C@H](C)[C@H](O)[C@H](C)/C=C(C)/C(C)=C/C=C/C(C)=C\C#N)OC)[C@H](OP(=O)(O)O)C3(C)C)co1)N(C)C [calyculin A]
[1]; calyculin A 20 nM
  basal 5-HT uptake: fails to diminish
[1]; calyculin A 20 nM, 15 min preincubation
  blockade of anisomycin stimulation of SERT: completely blocks
[1]; calyculin A 100 nM, fostriecin higher concentrations
  5-HT uptake at higher concentrations: inhibits both basal and anisomycin-stimulated 5-HT uptake

## O=C1C(Nc2ccccc2)=CC(=O)c2ncccc21 [LY83583]
[2]
  blockade of AR stimulation of SERT: completely abolished
[3]; SB203580, ODQ 10 μm, H8 0.1 μm, DT-2 1.0 μm
  blockade of anisomycin-stimulated 5-HT uptake: neither agent attenuated anisomycin stimulation
[1]; pretreatment, then anisomycin 1 μm 10 min, SB compounds, curcumin, PD98059, ODQ 10 μm, H8 0.1 μm, DT-2 1.0 μm, fostriecin 5 nM, MTSET 10 mM, siRNA 100 nM 48 h
  blockade of anisomycin-stimulated 5-HT uptake / SERT activity: neither agent attenuated anisomycin stimulation

## CCNC(=O)[C@H]1O[C@@H](n2cnc3c(N)ncnc32)[C@H](O)[C@@H]1O [NECA]
p38 MAPK; 5 min treatment
  level of p38 MAPK phosphorylation stimulation: comparable to stimulation achieved with 8-bromo-cGMP
p38 MAPK; data not shown
  total p38 MAPK levels: No changes
SERT in RBL-2H3 cells; acute treatment
  total SERT (paroxetine-displaceable [125I]RTI-55 binding): does not change
SERT in RBL-2H3 cells; anisomycin 1 μm, fostriecin 5 nM, NECA 1 μm, 10 min
  SERT surface density (5-HT-displaceable [125I]RTI-55 binding): significant increase

## NCCc1c[nH]c2ccc(O)cc12 [5-HT, 5-hydroxytryptamine]
hSERT Pro339Leu (P339L)
  5-HT Vmax: 3.0+/−1.2 % of hSERT
hSERT Pro339Leu (P339L); saturation kinetics
  5-HT Vmax: 1.2 ± 0.11 fmol/well/min
[3]; read-out: SERT Km for 5-HT, vehicle
  Km: 0.799 ± 0.097 µM
hSERT Ile425Val (I425V)
  5-HT Vmax: 190+/−28 % of hSERT
hSERT Ile425Val (I425V); saturation kinetics
  5-HT Vmax: 789.5+28 fmol/well/min
hSERT
  5-HT Vmax: 416.2+19 fmol/well/min
[1]; read-out: SERT Km for 5-HT, RBL-2H3, vehicle
  Km: 1.06 ± 0.145 µM

## C[S+]([O-])c1ccc(-c2nc(-c3ccc(F)cc3)c(-c3ccncc3)[nH]2)cc1 (stereo not shown) [SB203580]
Human NET
  blockade of anisomycin stimulation of NET: blocking stimulation back to basal levels

## hSERT (Homo sapiens)
NCCc1c[nH]c2ccc(O)cc12
  Km: 1.00+/−0.47 μM and 1.00+0.17 μM
